Test results from patent publication US20240425483A1, “INDOLINES AS PROTAC COMPOUNDS” (NeoPhore Limited, priority 2021, published 2024).

Molecular target: T1, PMS2 protein (Homo sapiens, UniProt P54278)
T1 construct: host or cells: SW620 human colorectal carcinoma cells
T1 sequence (P54278 1-862): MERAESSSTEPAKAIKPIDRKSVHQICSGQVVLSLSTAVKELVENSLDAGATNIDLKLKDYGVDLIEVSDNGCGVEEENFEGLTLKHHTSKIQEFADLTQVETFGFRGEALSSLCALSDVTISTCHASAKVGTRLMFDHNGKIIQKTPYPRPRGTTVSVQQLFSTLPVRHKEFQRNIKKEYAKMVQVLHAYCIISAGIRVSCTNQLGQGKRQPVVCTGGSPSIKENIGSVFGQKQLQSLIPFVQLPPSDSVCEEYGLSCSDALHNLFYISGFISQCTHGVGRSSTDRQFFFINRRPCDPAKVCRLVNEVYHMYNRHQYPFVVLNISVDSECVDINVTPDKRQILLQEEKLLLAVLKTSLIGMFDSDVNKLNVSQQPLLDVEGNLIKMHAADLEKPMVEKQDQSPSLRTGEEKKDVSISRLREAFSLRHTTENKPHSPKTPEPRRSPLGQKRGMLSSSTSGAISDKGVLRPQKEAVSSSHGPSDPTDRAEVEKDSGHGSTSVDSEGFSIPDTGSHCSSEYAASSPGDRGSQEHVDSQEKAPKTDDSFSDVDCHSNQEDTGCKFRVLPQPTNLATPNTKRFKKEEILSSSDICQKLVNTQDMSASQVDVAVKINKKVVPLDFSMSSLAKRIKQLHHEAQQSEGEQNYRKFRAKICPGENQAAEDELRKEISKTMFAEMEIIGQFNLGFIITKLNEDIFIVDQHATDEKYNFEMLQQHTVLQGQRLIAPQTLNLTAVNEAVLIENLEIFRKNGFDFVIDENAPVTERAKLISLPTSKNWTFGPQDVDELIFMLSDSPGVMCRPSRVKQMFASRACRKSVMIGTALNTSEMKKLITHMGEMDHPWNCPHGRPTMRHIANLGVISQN
Experiment: PROTAC screening in SW620 human colorectal carcinoma cells, PMS2 protein level by JESS Western blot
Type: cell-based
Conditions: SW-620, 24 h, 1 uM compound, normalised to actin and DMSO control, Table A1
Method: PROTAC Screening Protocol Using SW620 Human Colorectal Carcinoma Cells
SVW620 cells (ATCC/[…]) were cultured in T75 Falcon flasks in culture media (F12/DMEM 1:1 media, 10% FCS, +L-G supplement). Cells were split twice a week, for a maximum of 6 weeks. Media was aspirated, and cells washed with 10 mL of sterile PBS. PBS was aspirated, and cells incubated with 1.5 mL TrypLE for up to 5 minutes at 37° C., 5% CO2. Once cells had detached, TrypLE was neutralised with 10 mL culture media and cells mixed 1:1 with Trypan blue and quantified using a Luna cell counter. Cells were then seeded into fresh T75 flasks with 1×10^6 cells and 10 mL culture media.
SW620 cells, cultured and counted as above, were used to seed 12 well plates at a density of 1.5×10^5 cells/well and incubated overnight at 37° C., 5% CO2. Test compounds were solubilized in DMSO to a stock concentration of 10 mM and serially diluted in DMSO and media to their test concentration; the final concentration of DMSO was 0.1% (v/v). Each concentration was tested in triplicate. SW620 cells were incubated with test compound for 24 hours at 37° C., 5% CO2. Media was aspirated from each well, and each well washed with 1 mL ice cold PBS. PBS was then aspirated, and 50 μL of cold lysis buffer (RIPA buffer supplemented with 1× protease inhibitors, Benzonase, MgCl) was added to each well; plates were then incubated on ice for 5 minutes. Cells were scraped using a pipette tip before being transferred to a fresh Eppendorf. Samples were spun at maximum speed in a benchtop centrifuge for 5 minutes at 4° C. and supernatant was then transferred to fresh tubes. Samples were stored at −80° C. until analysis.
Bicinchonininic acid (BCA) protein assay standards (2-0.125 mg/mL BSA) were prepared in advance. 6 μL of each standard was pipetted in duplicate into rows A and B of a 384-well assay plate. Test samples were diluted in lysis buffer (1:3-1:10) in a 384-well plate in duplicate. BCA Reagents were combined 50:1, Part A:Part B and 50 μL added to each well. Plates were incubated for 30 min at 37° C. in a plate incubator and read using a BCA protein 384 protocol on an EnSpire plate reader. Protein concentrations were calculated from a standard curve.
JESS Western Blot Protocol
Protein lysates were prepared using Protein Simple EZ standard pack reagents: 40 μL distilled H2O was added to a DTT tube (clear) and treated with 20 μL 10× sample buffer and 20 μL DTT to 5×MM tube (pink). 20 μL dH2O was added to biotinylated ladder tube (green).
Test samples were prepared by dilution to the required concentration (0.1 mg/mL) in 0.1× sample buffer. 1.25 μL 5× fluorescent master mix from the EZ standard pack was added to 5 μL sample for each lane to be loaded (e.g. 2.5 μL+10 μL if loading same sample into 2 wells). Samples were vortexed, briefly spun down and heated at 95° C. for 5 min in a PCR machine then vortexed again and briefly spun down before loading onto JESS cassettes (catalogue No: SM-W004) according to manufacturer's instructions (https://www.proteinsimple.com/technical_library.html?product=simplewestern&def_list=list). Protein expression was determined by the peak area of the target protein signal. Peak area of the target protein was normalised to peak area of the loading control (actin) and to DMSO control.

Row | Compound | remaining activity at 1 µM
1 | Cc1c(O)cc(O)c(C(=O)N2Cc3ccc(C(=O)N4CCC(CN5CCN(c6cc7c(cc6F)C(=O)N(C6CCC(=O)NC6=O)C7=O)CC5)CC4)cc3C2)c1OCc1ccccc1 (stereo not drawn) [Example 23, 5-(4-((1-(2-(2-(Benzyloxy)-4,6-dihydroxy-3-methylbenzoyl)isoindoline-5-carbonyl)piperidin-4-yl)methyl)piperazin-1-yl)-2-(2,6-dioxopiperidin-3-yl)-6-fluoroisoindoline-1,3-dione] | 10 to 25%
2 | Cc1c(O)cc(O)c(C(=O)N2Cc3ccc(CN4CCN(CCOCCOCCOCCOc5cccc6c5C(=O)N(C5CCC(=O)NC5=O)C6=O)CC4)cc3C2)c1OCc1ccccc1 (stereo not drawn) [Example 9, 4-(2-(2-(2-(2-(4-((2-(2-(Benzyloxy)-4,6-dihydroxy-3-methylbenzoyl)isoindolin-5-yl)methyl)piperazin-1-yl)ethoxy)ethoxy)ethoxy)ethoxy)-2-(2,6-dioxopiperidin-3-yl)isoindoline-1,3-dione] | 10 to 25%
3 | Cc1c(O)cc(O)c(C(=O)N2Cc3ccc(CN4CCN(CCOCCOCCOCCOCCOc5cccc6c5C(=O)N(C5CCC(=O)NC5=O)C6=O)CC4)cc3C2)c1OCc1ccccc1 (stereo not drawn) [Example 11, 4-((14-(4-((2-(2-(Benzyloxy)-4,6-dihydroxy-3-methylbenzoyl)isoindolin-5-yl)methyl)piperazin-1-yl)-3,6,9,12-tetraoxatetradecyl)oxy)-2-(2,6-dioxopiperidin-3-yl)isoindoline-1,3-dione] | 10 to 25%
4 | Cc1c(O)cc(O)c(C(=O)N2Cc3ccc(CN4CCN(CCOCCOCCOCCOCCOCCNc5cccc6c5C(=O)N(C5CCC(=O)NC5=O)C6=O)CC4)cc3C2)c1OCC1CCCCC1 (stereo not drawn) [Example 7, 4-[2-[2-[2-[2-[2-[2-[4-[[2-[2-(Cyclohexylmethoxy)-4,6-dihydroxy-3-methyl-benzoyl]isoindolin-5-yl]methyl]piperazin-1-yl]ethoxy]ethoxy]ethoxy]ethoxy]ethoxy]ethylamino]-2-(2,6-dioxo-3-piperidyl)isoindoline-1,3-dione] | 10 to 25%
5 | Cc1c(O)cc(O)c(C(=O)N2Cc3ccc(CN4CCN(CCOCCOCCOCCOCCNc5cccc6c5C(=O)N(C5CCC(=O)NC5=O)C6=O)CC4)cc3C2)c1OCc1ccccc1 (stereo not drawn) [Example 3, 4-((14-(4-((2-(2-(Benzyloxy)-4,6-dihydroxy-3-methylbenzoyl)isoindolin-5-yl)methyl)piperazin-1-yl)-3,6,9,12-tetraoxatetradecyl)amino)-2-(2,6-dioxopiperidin-3-yl)isoindoline-1,3-dione] | 10 to 25%
6 | Cc1c(O)cc(O)c(C(=O)N2Cc3ccc(CN4CCC(C(=O)N5CCN(c6ccc7c(c6)CN(C6CCC(=O)NC6=O)C7=O)CC5)CC4)cc3C2)c1OCC1CCCCC1 (stereo not drawn) [Example 21, 3-(5-(4-(1-((2-(2-(cyclohexylmethoxy)-4,6-dihydroxy-3-methylbenzoyl)isoindolin-5-yl)methyl)piperidine-4-carbonyl)piperazin-1-yl)-1-oxoisoindolin-2-yl)piperidine-2,6-dione] | 10 to 25%
